The NIST ThermoML archive (doi:10.1021/je030132i)
Numbers after ± are expanded uncertainties.

Assay: xn = mol fraction of the nth substance listed
Conditions: 101.3 kPa, Liquid; for viscosity: Capillary tube (Ostwald / Ubbelohde) method; for mass density: Vibrating tube method

CC(O)CNCC(C)O (stereo unspecified) [N-(2-hydroxypropyl)-2-hydroxy-1-propanamine] + O
Conditions | mass density, 298.15 K [kg/m3] | mass density, 313.15 K [kg/m3] | mass density, 318.65 K [kg/m3] | viscosity, 298.15 K [mPa·s] | viscosity, 313.15 K [mPa·s] | viscosity, 318.65 K [mPa·s] | viscosity, 323.15 K [mPa·s]
x1 = 0.02 | 1005.22 ± 0.09 | 999.64 ± 0.09 | 997.52 ± 0.09 | 1.645 ± 0.01 | 1.112 ± 0.007 | 0.992 ± 0.006 | 0.907 ± 0.006
x1 = 0.0498 | 1015.93 ± 0.11 | 1008.66 ± 0.11 | 1006.43 ± 0.11 | 3.723 ± 0.023 | 2.218 ± 0.014 | 1.914 ± 0.012 | 1.684 ± 0.011
x1 = 0.0701 | 1021.72 ± 0.13 | 1013.2 ± 0.13 | 1010.34 ± 0.13 | 6.06 ± 0.04 | 3.335 ± 0.021 | 2.776 ± 0.017 | –
x1 = 0.1001 | 1027.13 ± 0.16 | 1017.4 ± 0.16 | 1014 ± 0.16 | 11.55 ± 0.07 | 5.56 ± 0.04 | 4.6 ± 0.03 | –
x1 = 0.1999 | 1030.9 ± 0.25 | 1019.77 ± 0.25 | 1015.54 ± 0.25 | 55.69 ± 0.28 | 20.63 ± 0.12 | 15.21 ± 0.09 | –
x1 = 0.3006 | 1027.13 ± 0.35 | 1016.15 ± 0.35 | 1011.9 ± 0.35 | 166.1 ± 3.5 | 46.9 ± 0.3 | 32.42 ± 0.2 | –
x1 = 0.3963 | 1022.42 ± 0.44 | 1011.45 ± 0.44 | 1007.24 ± 0.44 | 338.7 ± 11 | 87.7 ± 1 | 58.7 ± 0.4 | –
x1 = 0.5012 | 1017.79 ± 0.54 | 1006.84 ± 0.54 | 1002.82 ± 0.54 | 613 ± 26 | 139.1 ± 2.6 | 88.1 ± 1 | –
x1 = 0.5957 | 1014.09 ± 0.64 | 1003.2 ± 0.63 | 999.15 ± 0.63 | 861 ± 42 | 184.6 ± 4.3 | 114.5 ± 1.8 | –
x1 = 0.7034 | 1010.66 ± 0.74 | 999.62 ± 0.73 | 995.55 ± 0.73 | 1142 ± 61 | 229.9 ± 6.2 | 140 ± 2.7 | –
x1 = 0.8029 | 1008.07 ± 0.83 | 997.1 ± 0.83 | 993.04 ± 0.82 | 1326 ± 74 | 264.6 ± 7.8 | 159.5 ± 3.4 | –
x1 = 0.9016 | 1006.28 ± 0.93 | 995.03 ± 0.92 | 990.99 ± 0.92 | 1478 ± 85 | 290.7 ± 9.1 | 174.2 ± 4 | –
x1 = 1 | – | – | 988.22 ± 1 | – | – | 186.6 ± 4.6 | –
